The source made the active and inactive calls.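 Rule for the calls: active = mean IC50 below 20 µM in each of the two panels, so potent in both; inactive = the rest.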
Target: Neuropilin-1 (Homo sapiens) (UniProt O14786)
Assay: NRP-1 b1b2 CendR peptide binding inhibitors, dose response, biochemical, FP and AlphaScreen panel (AID 651650)
Conditions: NRP-1 b1b2 / RPARPAR peptide binding, FP or AlphaScreen
[1] = AlphaScreen, run 1, individual panel run IC50
[2] = FP, run 1, individual panel run IC50
[3] = FP, run 2, individual panel run IC50

Chain of Neuropilin-1 (Homo sapiens) (O14786 whole entry, looked up): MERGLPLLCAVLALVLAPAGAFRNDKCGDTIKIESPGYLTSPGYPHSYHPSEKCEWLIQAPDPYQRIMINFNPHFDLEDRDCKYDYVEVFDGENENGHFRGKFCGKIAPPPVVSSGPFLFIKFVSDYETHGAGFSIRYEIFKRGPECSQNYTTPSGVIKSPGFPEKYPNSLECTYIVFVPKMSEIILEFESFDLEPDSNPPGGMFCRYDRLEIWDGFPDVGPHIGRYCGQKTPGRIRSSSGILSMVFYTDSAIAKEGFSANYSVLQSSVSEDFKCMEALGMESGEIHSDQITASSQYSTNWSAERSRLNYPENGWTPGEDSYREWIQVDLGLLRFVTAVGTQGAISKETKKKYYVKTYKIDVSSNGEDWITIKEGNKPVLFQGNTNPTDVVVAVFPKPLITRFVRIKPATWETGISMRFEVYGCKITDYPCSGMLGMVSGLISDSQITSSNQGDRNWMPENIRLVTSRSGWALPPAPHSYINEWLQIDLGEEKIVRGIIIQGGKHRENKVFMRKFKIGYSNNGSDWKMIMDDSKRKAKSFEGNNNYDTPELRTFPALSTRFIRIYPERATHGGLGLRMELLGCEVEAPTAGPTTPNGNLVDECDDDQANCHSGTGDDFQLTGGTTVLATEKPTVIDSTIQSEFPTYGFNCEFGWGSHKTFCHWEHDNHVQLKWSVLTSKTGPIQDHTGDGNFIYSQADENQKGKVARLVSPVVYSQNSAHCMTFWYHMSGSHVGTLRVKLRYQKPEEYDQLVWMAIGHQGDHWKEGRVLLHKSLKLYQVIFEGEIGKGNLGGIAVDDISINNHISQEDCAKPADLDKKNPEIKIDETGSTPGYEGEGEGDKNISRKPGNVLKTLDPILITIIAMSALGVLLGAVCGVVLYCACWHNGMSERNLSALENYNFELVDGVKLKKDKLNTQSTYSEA

SMILES | IC50 (AlphaScreen, mean of runs) | IC50 [1] | IC50 (FP, mean of runs) | IC50 [2] | IC50 [3]
COc1cccc(OCCNC(=O)Nc2cc(F)c(F)cc2Cl)c1 | > 100 µM (inactive) | > 100 µM | > 95 µM (inactive) | > 95 µM | > 95 µM
NC(=O)CC[C@H](NC(=O)c1ccc(F)cc1)C(=O)N1CCN(Cc2ccc3c(c2)OCO3)CC1 | > 100 µM (inactive) | > 100 µM | > 95 µM (inactive) | > 95 µM | > 95 µM
Cc1ccccc1Nc1nc(N)nc(COC(=O)CC2CC3CCC2C3)n1 (stereo not given) | > 100 µM (inactive) | > 100 µM | > 95 µM (inactive) | > 95 µM | > 95 µM
CCC1=C(OC(=O)N(CC)CC)N2C(=O)OC(=NCC3CC3)[C@]2(Cc2ccccc2)[C@H]2C1=CC[C@H]1C(=O)N(C)C(=O)[C@H]12 | > 100 µM (inactive) | > 100 µM | > 95 µM (inactive) | > 95 µM | > 95 µM
CCOc1c2ccc(C(=O)NCCc3cccs3)cc2nn1CC | > 100 µM (inactive) | > 100 µM | > 95 µM (inactive) | > 95 µM | > 95 µM
Cc1ccc(NC(=O)c2ccc3c(c2)S(=O)(=O)c2ccccc2C3=O)cc1S(=O)(=O)N1CCOCC1 | > 100 µM (inactive) | > 100 µM | > 95 µM (inactive) | > 95 µM | > 95 µM
O=C(c1cccc(F)c1)N1CCN(c2ccc([N+](=O)[O-])c(N3CCCCC3)c2)CC1 | > 100 µM (inactive) | > 100 µM | > 95 µM (inactive) | > 95 µM | > 95 µM
CC(C)(C)c1nc(SCC(=O)NCc2ccco2)c2ccccc2n1 | inactive | 28 µM | > 95 µM (inactive) | > 95 µM | > 95 µM
CN(c1ccc(OCC(=O)OCC(=O)Nc2ccc([N+](=O)[O-])cc2)cc1)S(=O)(=O)c1cccs1 | inactive | 44.1 µM | > 95 µM (inactive) | > 95 µM | > 95 µM
COc1ccc2c(c1OC)CN1CCc3cc4c(cc3[C@@H]1[C@@H]2O)OCO4 | > 100 µM (inactive) | > 100 µM | > 95 µM (inactive) | > 95 µM | > 95 µM
Cc1cnccc1CNC(=O)CC1C(=O)NCCN1CC(C)(C)C (stereo not given) | > 100 µM (inactive) | > 100 µM | > 95 µM (inactive) | > 95 µM | > 95 µM
CCCS(=O)(=O)N1CCC(Cc2ccc(OC)cc2)(C(=O)OCC)CC1 | > 100 µM (inactive) | > 100 µM | > 95 µM (inactive) | > 95 µM | > 95 µM
NS(=O)(=O)c1cccnc1Nc1cccc(Cl)c1Cl | > 100 µM (inactive) | > 100 µM | > 95 µM (inactive) | > 95 µM | > 95 µM
CC1CCC(NC(=O)CSc2nncn2C)CC1 (stereo not given) | > 100 µM (inactive) | > 100 µM | > 95 µM (inactive) | > 95 µM | > 95 µM
CCOC(=O)c1ccc2[nH]c(C)c(C)c2c1 | > 100 µM (inactive) | > 100 µM | > 95 µM (inactive) | > 95 µM | > 95 µM
CCOc1ccc(/C=C2/Sc3ccc(C(=O)NCC4CCCO4)cc3N(C)C2=O)cc1OC (stereo not given) | > 100 µM (inactive) | > 100 µM | > 95 µM (inactive) | > 95 µM | > 95 µM
O=C(CN1C2=NCCN2c2ccccc21)c1ccco1 | > 100 µM (inactive) | > 100 µM | > 95 µM (inactive) | > 95 µM | > 95 µM
Cc1ccccc1-n1ncc2c1CC(C)(C)CC2NC(=O)c1ccncc1 (stereo not given) | > 100 µM (inactive) | > 100 µM | > 95 µM (inactive) | > 95 µM | > 95 µM
CN(C)CCn1c(=O)n(-c2ccc(F)cc2)c(=O)c2c3c(sc21)CCCCC3 | inactive | 44.2 µM | > 95 µM (inactive) | > 95 µM | > 95 µM
N#Cc1ccc(COC(=O)c2cnc(Cl)c(Cl)c2)cc1 | > 100 µM (inactive) | > 100 µM | > 95 µM (inactive) | > 95 µM | > 95 µM
Cc1ccc(S(=O)(=O)NCC(=O)N(c2ccccc2)C(C(=O)NCc2ccccc2)c2ccco2)cc1 (stereo not given) | > 100 µM (inactive) | > 100 µM | > 95 µM (inactive) | > 95 µM | > 95 µM
CC(=O)Nc1ccc(NC(=O)C2CC(=O)N(c3ccc(Cl)cc3)C2)cc1 (stereo not given) | 17.9 µM | 17.9 µM | > 95 µM (inactive) | > 95 µM | > 95 µM

SMILES | IC50 (AlphaScreen, mean of runs) | IC50 [1] | IC50 (FP, mean of runs) | IC50 [2] | IC50 [3]
COc1ccc(/C=N/NC(=O)c2nn(-c3ccc(Cl)cc3)c(=O)c3c(N)scc23)cc1 | > 100 µM (inactive) | > 100 µM | > 95 µM (inactive) | > 95 µM | > 95 µM
Cn1cnc2cc(NC(=O)c3ccco3)ccc21 | 18.5 µM | 18.5 µM | > 95 µM (inactive) | > 95 µM | > 95 µM
CCOC(=O)C1CCN(Cc2ccc3ccccc3c2)CC1 | > 100 µM (inactive) | > 100 µM | > 95 µM (inactive) | > 95 µM | > 95 µM
Cc1ccc(Cn2nnnc2CN2CCC(n3nnc4ccccc43)CC2)cc1 | > 100 µM (inactive) | > 100 µM | > 95 µM (inactive) | > 95 µM | > 95 µM
COc1ccc(Cl)cc1S(=O)(=O)N1CCN(CC(=O)C(C)(C)C)CC1 | > 100 µM (inactive) | > 100 µM | > 95 µM (inactive) | > 95 µM | > 95 µM
Cc1ccc(NC(=O)c2ccc3c(c2)OCCO3)cc1S(=O)(=O)Nc1cccc(Cl)c1 | > 100 µM (inactive) | > 100 µM | > 95 µM (inactive) | > 95 µM | > 95 µM
O=C(NC1CC1)c1ccc(COc2ccc(F)cc2)o1 | > 100 µM (inactive) | > 100 µM | > 95 µM (inactive) | > 95 µM | > 95 µM
COc1ccc2c(c1)N(C)/C(=C1/SC(=NCc3ccccc3)N(c3ccccc3)C1=O)S2 | > 100 µM (inactive) | > 100 µM | > 95 µM (inactive) | > 95 µM | > 95 µM
Cc1ccnc(N2CCC(C(=O)Nc3ccc4c(c3)OCCO4)CC2)n1 | > 100 µM (inactive) | > 100 µM | > 95 µM (inactive) | > 95 µM | > 95 µM
CCOC(=O)[C@]12CCCC=C1N(CCC1=CCCCC1)C(=O)[C@H](CC(=O)NCC13CC4CC(CC(C4)C1)C3)C2 | > 100 µM (inactive) | > 100 µM | > 95 µM (inactive) | > 95 µM | > 95 µM
O=C(O)CSc1nnc(-c2ccc(Cl)cc2Cl)n1-c1ccc(Cl)cc1 | inactive | 39.9 µM | inactive | > 95 µM | 34.4 µM
CCOC(=O)C[C@H]1c2cc(C(F)(F)F)ccc2S(=O)(=O)N1Cc1ccccc1 | > 100 µM (inactive) | > 100 µM | > 95 µM (inactive) | > 95 µM | > 95 µM
CCc1ccc(NS(=O)(=O)c2c(C(=O)N3CCCCCC3)c(C)n(C)c2C)cc1 | > 100 µM (inactive) | > 100 µM | > 95 µM (inactive) | > 95 µM | > 95 µM
Cc1ccc(S(=O)(=O)N2[C@@H](c3ccc(Cl)cc3)C(C(=O)OC(C)(C)C)=CC[C@H]2c2ccc(Cl)c(Cl)c2)cc1 | inactive | 41 µM | > 95 µM (inactive) | > 95 µM | > 95 µM
CCOC(=O)N1CCN(C(=O)Nc2ccc3nc(C)c(C)nc3c2)CC1 | > 100 µM (inactive) | > 100 µM | > 95 µM (inactive) | > 95 µM | > 95 µM
O=C1CCC/C=C\C[C@@H](CC(=O)N(CCO)Cc2ccccc2)C(=O)N2CCC[C@H]2CO1 | > 100 µM (inactive) | > 100 µM | > 95 µM (inactive) | > 95 µM | > 95 µM
CC1CCN(C(=O)c2[nH]cnc2C(=O)NCc2ccc(CNC(=O)OC(C)(C)C)cc2)CC1 | 12.9 µM | 12.9 µM | > 95 µM (inactive) | > 95 µM | > 95 µM
CC(/C=C/c1ccccc1)=N\NC(=O)CCc1ccccc1 | > 100 µM (inactive) | > 100 µM | > 95 µM (inactive) | > 95 µM | > 95 µM
CC(C)(C)n1cnc2cc(NC(=O)c3ccccc3)ccc21 | 17 µM | 17 µM | > 95 µM (inactive) | > 95 µM | > 95 µM
Cc1cc(C)cc(N(CCC(=O)O)S(=O)(=O)c2ccc3ccccc3c2)c1 | > 100 µM (inactive) | > 100 µM | > 95 µM (inactive) | > 95 µM | > 95 µM
COC(=O)CCCC1=CC2=CC(=O)C(C)(OC(=O)c3cccs3)C(=O)C2=CN1CCCCO (stereo not given) | > 100 µM (inactive) | > 100 µM | > 95 µM (inactive) | > 95 µM | > 95 µM
Cn1c(=O)c2c(ncn2CC(COCc2ccccc2)OCc2ccccc2)n(C)c1=O (stereo not given) | > 100 µM (inactive) | > 100 µM | > 95 µM (inactive) | > 95 µM | > 95 µM

Source: PubChem BioAssay AID651650 (Sanford-Burnham Center for Chemical Genomics, 2012)
